# “And” between values parts separate entries of the source, which are not always exact repeats. Equal entries are not always repeated. Structures can show the parent of a compound that is named as a salt.
# Experiments:
# Lassa virus [1] = experiment: microbe, parasite or virus in culture; format: cell-based
# Lassa virus [2] = experiment: microbe, parasite or virus in culture; format: cell-based; conditions: Mammarenavirus lassaense, Vero C1008
# [3] = Mammarenavirus lassaense, Huh-7
structure (smiles),measurement,setting,value
"NC(=O)c1cn([C@@H]2O[C@H](CO)[C@@H](O)[C@H]2O)c2ncnc(N)c12 [Oya1, 4-amino-7-((2R,3R,4S,5R)-3,4-dihydroxy-5-(hydroxymethyl)tetrahydrofuran-2-yl)-7H-pyrrolo[2,3-d]pyrimidine-5-carboxamide]",Inhibition,Lassa virus [1]; 0.0047 µM,33.96% and 28.083% and 24.36% and 25.62% and 25.65%
same,Inhibition,Lassa virus [1]; 0.0094 µM,26.74% and 30.9% and 23.28% and 15.83% and 22.14% and 20.065%
same,inhibition at 0.0047 µM,Lassa virus [1]; [3],32.3%
same,inhibition at 0.15 µM,Lassa virus [1]; [3],79.9%
same,inhibition at 0.3 µM,Lassa virus [1]; [3],97.6%
same,inhibition at 0.6 µM,Lassa virus [1]; [3],98.8%
same,inhibition at 0.075 µM,Lassa virus [2],89.2%
same,inhibition at 0.15 µM,Lassa virus [2],100%
same,inhibition at 0.3 µM,Lassa virus [2],101%
same,inhibition at 0.6 µM,Lassa virus [2],101%
"CN(C)CCOc1ccc(/C(=C(/CCCl)c2ccccc2)c2ccccc2)cc1 [Toremifene citrate, reference compound]",Inhibition,Lassa virus [1]; 0.4688 µM,31.7829% and 32.93% and 31.98% and 27.3% and 32.75%
same,Inhibition,Lassa virus [1]; 0.9375 µM,22.38% and 19.16% and 30.38% and 25.19% and 18.19%
same,Inhibition,Lassa virus [1]; 1.875 µM,18.84% and 15.13% and 24.79% and 16.6% and 19.82%
same,Inhibition,Lassa virus [1]; 3.75 µM,15.93% and 10.32% and 20.17% and 17.07% and 18.53%
same,inhibition at 0.4688 µM,Lassa virus [1]; [3],37.4%
same,inhibition at 0.9375 µM,Lassa virus [1]; [3],29.9%
same,inhibition at 1.875 µM,Lassa virus [1]; [3],20.9%
same,inhibition at 3.75 µM,Lassa virus [1]; [3],16.3%
"Cl.NC(=O)c1cn([C@@H]2O[C@H](CO)[C@@H](O)[C@H]2O)c2ncnc(N)c12 [Oya2, 4-amino-7-((2R,3R,4S,5R)-3,4-dihydroxy-5-(hydroxymethyl)tetrahydrofuran-2-yl)-7H-pyrrolo[2,3-d]pyrimidine-5-carboxamide hydrochloride]",Inhibition,"Lassa virus [1]; 0.0047 µM, hydrochloride",28.74% and 26.14% and 27.5%
same,Inhibition,"Lassa virus [1]; 0.0094 µM, hydrochloride",21.1% and 20.68% and 22.57%

# Reference: patent US20230285434A1 (priority 2020, published 2023)
